Source: paper PMC12686497, “Exploring neurokinin-1 receptor antagonism for depression with structurally differentiated inhibitors” (Experimental & Molecular Medicine, 2025)

Columns and labels:
[1] = biological target: T1, NK1R (hTACR1-HEK293 cells) (Homo sapiens, UniProt P25103); assay: FLIPR calcium 6 assay, SP-induced intracellular calcium mobilization; type: cell-based; settings: 1 nM SP
T1 construct: expressed in transfected cells; host or cells: HEK293
Procedure: The following day, the cells were loaded with the FLIPR calcium 6 dye mixed at 1:1 to medium with 2.5 mM probenecid. The assay plate was wrapped with aluminum foil and incubated for 2 h at 37 °C in a humidified CO2 incubator. Each concentration of chemicals was dissolved in 1× Hank’s Balanced Salt Solution (plus 20 mM HEPES buffer, pH 7.4) and added to the well. The plate was incubated for 30 min at 37 °C before measuring. The final concentration of dimethyl sulfoxide was 0.5% in each well. Then, 1 nM SP-induced intracellular calcium mobilization was examined by monitoring the fluorescence intensity (excitation at 485 nm, emission at 525 nm, cutoff filter set at 515 nm) using a Flex Station 3 multimode microplate reader. Changes in fluorescence signal after SP addition were normalized to its starting signal and denoted as F/F0.

[2] = tested on: LPS-induced depressive-like behavior; assay: Tail suspension test (TST) in LPS model; type: in vivo, C57BL/6 mice; settings: 10 mg/kg i.p., vs LPS-treated group
Procedure: (§1) The ligands were dissolved at a dose of 10 mg/kg in the vehicle (10% dimethyl sulfoxide and 10% Kolliphor in 0.9% saline) and intraperitoneally injected into each animal in experimental groups.
(§2) To generate the lipopolysaccharide (LPS) model, 0.25 mg/kg of LPS from E. coli O26:B6 (Sigma, L3755) was dissolved in 0.9% saline and injected intraperitoneally. The control group was treated with 0.9% saline instead of LPS injection. The mice received injections of either vehicle, compound #1, compound #15 or Aprepitant (Tocris Bioscience) on day 1, 1 h before LPS injection and on day 2.
On day 4 after LPS administration, the tail suspension test (TST) was conducted. A four-chamber apparatus divided by nontransparent acrylic partitions was used, and the mice were suspended in each chamber by the tail. A video was recorded for 6 min, and the last 4 min were manually scored for immobility time.

[3] = tested on: IL-1β, TNF-α and IL-6 mRNA; assay: qRT-PCR of proinflammatory cytokine mRNA in frontal cortex and hippocampus, LPS model; type: in vivo, C57BL/6 mice; settings: 10 mg/kg i.p., 4 h after LPS, vs LPS-treated group
Procedure: as §1, §2
Four hours after LPS injection, the frontal lobe and hippocampus were isolated from the animal brain and placed in TRIzol solution (Ambion). Total RNA sample (2 μg) was reverse-transcribed into cDNA using Moloney Murine Leukemia Virus reverse transcriptase (M-MLV RT; Promega) and oligo (dT) primer (Novagen). Quantitative reverse transcription polymerase chain reaction (qRT–PCR), which quantifies gene expression levels, was performed using 0.5 μg of the reverse-transcription generated cDNA and specific primer sets (Supplementary Table 3). PCR amplification with iQ SYBR Green Supermix was performed in triplicate using the CFX96 Touch-Time System (Bio-Rad). The final products of qRT–PCR were electrophoresed on 2% agarose gels and visualized with SafeView Nucleic Acid Stain (G108, Applied Biological Materials). Cycle threshold (Ct) values at which the fluorescent signal exceeded the background were determined by qRT–PCR, and expression values for each gene were normalized to expression values of GAPDH. Relative quantification to calculate fold change was performed using the comparative Ct method (ΔΔCt).

[4] = tested on: SI-induced despair-like behavior; assay: Forced swim test (FST) in social isolation (SI) stress model; type: in vivo, C57BL/6 mice; settings: 10 mg/kg i.p. day 6 to 13
Procedure: as §1
To generate the social isolation (SI) stress model, the animals were single-caged for 14 days. From day 6 to 13, mice received injections of either vehicle or compound #15.
(§3) On day 21 in the RS model and day 12 in the SI model, the forced swim test (FST) was performed. During each trial, mice were placed in a test cylinder (diameter 15 cm, height 25 cm) filled with water regulated at 25 ± 1 °C, and a video was recorded for 6 min. Immobility time was manually scored during the last 4 min of each trial.

[5] = tested on: RS-induced despair-like behavior; assay: Forced swim test (FST) in restraint stress (RS) model; type: in vivo, C57BL/6 mice; settings: 10 mg/kg i.p. day 11 to 20
Procedure: as §1
To induce depressive-like behaviors in mice, restraint stress (RS) was applied using 50-ml conical tubes with many holes for 20 days, 2 h per day. From day 11 to 20, mice received injections of either vehicle or compound #15.
as §3

T1 sequence (P25103 whole entry): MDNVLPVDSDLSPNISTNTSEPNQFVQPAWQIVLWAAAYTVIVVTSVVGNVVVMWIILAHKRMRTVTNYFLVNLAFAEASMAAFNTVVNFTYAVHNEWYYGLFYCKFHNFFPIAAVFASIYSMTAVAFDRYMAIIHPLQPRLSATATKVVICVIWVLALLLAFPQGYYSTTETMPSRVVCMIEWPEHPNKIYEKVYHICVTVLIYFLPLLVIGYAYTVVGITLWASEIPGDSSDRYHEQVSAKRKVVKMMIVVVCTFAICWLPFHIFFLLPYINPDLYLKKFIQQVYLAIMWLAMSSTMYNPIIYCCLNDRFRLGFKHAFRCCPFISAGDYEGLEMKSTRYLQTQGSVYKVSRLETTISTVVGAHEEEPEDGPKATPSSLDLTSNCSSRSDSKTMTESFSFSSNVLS

NK1R antagonistic / inhibitory activity (in words) [1] | Structure (SMILES) | immobility time in TST [2] | IL-6 mRNA level ([3]; frontal cortex) | TNF-α mRNA level ([3]; frontal cortex) | IL-1β mRNA level ([3]; hippocampus) | IL-6 mRNA level ([3]; hippocampus) | TNF-α mRNA level ([3]; hippocampus) | other results
 | COc1ccc(-c2[nH]c3ccc(F)cc3c2CCC(=O)NC(C)c2ccc(-n3cncn3)cc2)cc1 (stereo not shown) [#1] | significant reduction in immobility time | significantly reduced | significantly reduced | significantly reduced | significantly reduced | significantly reduced | IC50 (in words) [1]: single-digit micromolar
weaker inhibitory effects | COc1ccc(C(C)=O)cc1CC(=O)N(C)Cc1cc(Br)ccc1OC [#2] |  |  |  |  |  |  | 
weaker inhibitory effects | Cc1cc(F)ccc1C1CCN(C(=O)NC2CCOC3(CCOC3)C2)CC1 (stereo not shown) [#3] |  |  |  |  |  |  | 
 | Cc1ccc2[nH]c(-c3ccc(Br)cc3)c(CCC(=O)NC(c3ccc(C(C)C)cc3)C(C)C)c2c1 (stereo not shown) [#15] | significantly reduced immobility time |  |  |  |  |  | IC50 [1]: 0.0795 µM; immobility time in FST [4]: notable reduction in immobility time; immobility time in FST [5]: notable reduction in immobility time
 | C[C@@H](O[C@H]1OCCN(Cc2n[nH]c(=O)[nH]2)[C@H]1c1ccc(F)cc1)c1cc(C(F)(F)F)cc(C(F)(F)F)c1 [Aprepitant, reference compound] | significant reduction in immobility time | significantly reduced | significantly reduced | significantly reduced | significantly reduced | significantly reduced | 
